Measured values published in ChEMBL document CHEMBL1145273, “New cytotoxic bisindole alkaloids with protein tyrosine kinase inhibitory activity from a myxomycete Lycogala epidendrum” (Bioorg Med Chem Lett, 2005).
Values after ≈ are worked out from the molar mass of the structure shown.

What was measured:
[1] = target: T1, Eukaryotic elongation factor 2 kinase (Homo sapiens) (UniProt O00418); assay: Inhibition of eukaryotic elongation factor-2 kinase mediated [gamma-32P]-ATP incorporation at 0.1 ug/mL
T1 sequence (whole entry): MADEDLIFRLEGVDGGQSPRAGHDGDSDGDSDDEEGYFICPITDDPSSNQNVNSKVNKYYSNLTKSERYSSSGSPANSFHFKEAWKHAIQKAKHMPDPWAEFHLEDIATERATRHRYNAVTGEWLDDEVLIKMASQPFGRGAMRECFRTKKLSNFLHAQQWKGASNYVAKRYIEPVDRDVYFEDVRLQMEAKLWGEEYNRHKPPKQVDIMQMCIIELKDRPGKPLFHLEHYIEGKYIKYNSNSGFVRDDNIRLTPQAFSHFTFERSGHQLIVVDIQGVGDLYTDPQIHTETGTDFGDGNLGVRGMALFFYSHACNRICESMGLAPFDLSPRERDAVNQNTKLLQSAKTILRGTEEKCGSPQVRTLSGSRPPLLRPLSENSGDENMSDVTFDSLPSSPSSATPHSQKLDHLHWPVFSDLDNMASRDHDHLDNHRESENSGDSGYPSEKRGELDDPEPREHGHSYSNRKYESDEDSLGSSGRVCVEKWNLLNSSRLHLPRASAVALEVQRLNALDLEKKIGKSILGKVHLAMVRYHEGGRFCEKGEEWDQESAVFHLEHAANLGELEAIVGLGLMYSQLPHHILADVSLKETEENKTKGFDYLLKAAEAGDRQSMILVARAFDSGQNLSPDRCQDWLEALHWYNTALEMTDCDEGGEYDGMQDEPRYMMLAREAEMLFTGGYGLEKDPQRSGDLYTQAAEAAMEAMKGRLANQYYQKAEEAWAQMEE

[2] = target: Vascular endothelial growth factor receptor 1 (Homo sapiens) (UniProt P17948); assay: Inhibition of Vascular endothelial growth factor receptor 1 mediated [gamma-32P]-ATP incorporation at 10 ug/mL
[3] = target: Vascular endothelial growth factor receptor 1 (Homo sapiens) (UniProt P17948); assay: Inhibition of Vascular endothelial growth factor receptor 1 mediated [gamma-32P]-ATP incorporation at 0.1 ug/mL
[4] = system: Jurkat; assay: Cytotoxicity against Jurkat cells; assay type: functional, cell-based; settings: Homo sapiens
[5] = target: T2, cAMP-dependent protein kinase (PKA) (Homo sapiens) (UniProt P22694+P17612+P22612); assay: Inhibition of Protein kinase A mediated [gamma-32P]-ATP incorporation at 1 ug/mL; assay type: protein assay
[6] = target: T3, Protein kinase C (PKC) (Homo sapiens) (UniProt O94806+P41743+P17252+P05129+Q05655+P05771+Q05513+Q02156+P24723+Q15139+Q04759); assay: Inhibition of Protein kinase C mediated […]-ATP incorporation at 10 ug/mL; Range is 50 to 80%; assay type: protein assay
[7] = target: Proto-oncogene tyrosine-protein kinase Src (Homo sapiens) (UniProt P12931); assay: Inhibition of protein tyrosine kinase mediated [gamma-32P]-ATP incorporation at 1 ug/mL in src-transformed NIH3T3
[8] = Cytotoxicity against KB/VJ300 cells; assay type: functional, cell-based; settings: Homo sapiens
[9] = target: T3, Protein kinase C (PKC) (Homo sapiens); assay: Inhibition of Protein kinase C mediated […]-ATP incorporation at 1 ug/mL; assay type: protein assay
[10] = target: T2, cAMP-dependent protein kinase (PKA) (Homo sapiens); assay: Inhibition of Protein kinase A mediated [gamma-32P]-ATP incorporation at 10 ug/mL; assay type: protein assay
[11] = system: HeLa; assay: Cytotoxicity against HeLa cells; assay type: functional, cell-based; settings: Homo sapiens
[12] = target: Proto-oncogene tyrosine-protein kinase Src (Homo sapiens) (UniProt P12931); assay: Inhibition of protein tyrosine kinase mediated [gamma-32P]-ATP incorporation at 10 ug/mL in src-transformed NIH3T3; range = 50-80%
[13] = target: Proto-oncogene tyrosine-protein kinase Src (Homo sapiens) (UniProt P12931); assay: Inhibition of protein tyrosine kinase mediated [gamma-32P]-ATP incorporation at 0.1 ug/mL in src-transformed NIH3T3
[14] = target: Vascular endothelial growth factor receptor 1 (Homo sapiens) (UniProt P17948); assay: Inhibition of Vascular endothelial growth factor receptor 1 mediated [gamma-32P]-ATP incorporation at 1 ug/mL
[15] = target: T3, Protein kinase C (PKC) (Homo sapiens); assay: Inhibition of Protein kinase C mediated […]-ATP incorporation at 0.1 ug/mL; assay type: protein assay
[16] = target: T1, Eukaryotic elongation factor 2 kinase (Homo sapiens); assay: Inhibition of eukaryotic elongation factor-2 kinase mediated [gamma-32P]-ATP incorporation at 1 ug/mL
[17] = target: T1, Eukaryotic elongation factor 2 kinase (Homo sapiens); assay: Inhibition of eukaryotic elongation factor-2 kinase mediated [gamma-32P]-ATP incorporation at 10 ug/mL
[18] = target: T2, cAMP-dependent protein kinase (PKA) (Homo sapiens); assay: Inhibition of Protein kinase A mediated [gamma-32P]-ATP incorporation at 0.1 ug/mL; assay type: protein assay
[19] = target: T3, Protein kinase C (PKC) (Homo sapiens); assay: Inhibition of Protein kinase C mediated […]-ATP incorporation at 10 ug/mL; assay type: protein assay
[20] = target: T1, Eukaryotic elongation factor 2 kinase (Homo sapiens); assay: Inhibition of eukaryotic elongation factor-2 kinase mediated [gamma-32P]-ATP incorporation at 10 ug/mL; Range is 50-80
[21] = target: Proto-oncogene tyrosine-protein kinase Src (Homo sapiens) (UniProt P12931); assay: Inhibition of protein tyrosine kinase mediated [gamma-32P]-ATP incorporation at 10 ug/mL in src-transformed NIH3T3

Sequence of Vascular endothelial growth factor receptor 1 (Homo sapiens) (P17948 whole entry): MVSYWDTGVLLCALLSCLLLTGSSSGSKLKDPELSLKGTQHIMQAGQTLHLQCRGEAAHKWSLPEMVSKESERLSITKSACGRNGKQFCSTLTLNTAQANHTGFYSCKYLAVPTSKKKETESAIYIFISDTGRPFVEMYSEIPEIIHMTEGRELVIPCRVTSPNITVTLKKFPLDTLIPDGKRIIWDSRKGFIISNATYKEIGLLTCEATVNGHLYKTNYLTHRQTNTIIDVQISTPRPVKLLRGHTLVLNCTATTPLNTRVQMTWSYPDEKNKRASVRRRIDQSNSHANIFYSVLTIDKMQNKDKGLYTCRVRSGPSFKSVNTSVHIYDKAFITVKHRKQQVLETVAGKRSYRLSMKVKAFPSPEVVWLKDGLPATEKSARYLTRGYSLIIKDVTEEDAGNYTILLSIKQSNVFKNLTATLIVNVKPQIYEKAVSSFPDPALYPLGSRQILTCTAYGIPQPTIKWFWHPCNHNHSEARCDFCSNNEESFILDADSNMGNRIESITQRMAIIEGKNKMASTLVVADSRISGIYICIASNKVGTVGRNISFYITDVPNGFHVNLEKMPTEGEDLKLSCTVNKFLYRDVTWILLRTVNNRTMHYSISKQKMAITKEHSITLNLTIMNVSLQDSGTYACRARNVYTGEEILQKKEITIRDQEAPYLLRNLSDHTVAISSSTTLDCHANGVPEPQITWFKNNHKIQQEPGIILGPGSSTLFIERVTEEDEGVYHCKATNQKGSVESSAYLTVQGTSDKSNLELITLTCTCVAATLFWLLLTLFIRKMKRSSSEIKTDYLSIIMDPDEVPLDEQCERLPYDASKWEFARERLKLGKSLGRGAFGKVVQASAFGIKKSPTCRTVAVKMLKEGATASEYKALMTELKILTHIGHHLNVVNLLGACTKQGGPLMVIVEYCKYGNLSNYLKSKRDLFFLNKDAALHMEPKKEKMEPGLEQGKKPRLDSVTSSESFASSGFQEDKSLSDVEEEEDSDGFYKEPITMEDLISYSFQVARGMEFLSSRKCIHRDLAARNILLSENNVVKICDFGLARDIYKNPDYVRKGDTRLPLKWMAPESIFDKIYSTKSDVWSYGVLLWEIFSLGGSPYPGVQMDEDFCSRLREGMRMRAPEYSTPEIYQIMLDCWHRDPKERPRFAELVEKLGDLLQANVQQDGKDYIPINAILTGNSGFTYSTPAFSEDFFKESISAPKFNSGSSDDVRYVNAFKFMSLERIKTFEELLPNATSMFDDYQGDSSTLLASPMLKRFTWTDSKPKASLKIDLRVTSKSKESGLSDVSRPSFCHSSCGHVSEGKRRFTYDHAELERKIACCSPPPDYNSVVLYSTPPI
Sequence of Proto-oncogene tyrosine-protein kinase Src (Homo sapiens) (P12931 2-536 limits assumed): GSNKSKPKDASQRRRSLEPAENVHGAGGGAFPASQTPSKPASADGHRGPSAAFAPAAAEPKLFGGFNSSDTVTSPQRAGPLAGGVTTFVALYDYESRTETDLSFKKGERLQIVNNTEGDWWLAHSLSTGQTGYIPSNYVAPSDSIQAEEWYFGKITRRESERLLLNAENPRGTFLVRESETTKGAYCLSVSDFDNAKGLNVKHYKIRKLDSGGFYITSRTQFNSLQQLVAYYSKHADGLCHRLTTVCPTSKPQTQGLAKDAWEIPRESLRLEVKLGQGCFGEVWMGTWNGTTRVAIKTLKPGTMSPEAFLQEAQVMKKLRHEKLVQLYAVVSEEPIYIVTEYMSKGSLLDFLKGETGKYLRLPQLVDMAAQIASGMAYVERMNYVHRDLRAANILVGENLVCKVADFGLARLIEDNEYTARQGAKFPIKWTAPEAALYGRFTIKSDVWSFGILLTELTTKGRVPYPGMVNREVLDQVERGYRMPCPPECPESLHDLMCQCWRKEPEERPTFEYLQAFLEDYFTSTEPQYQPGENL

## O=C1NC(=O)c2c1c1c3ccccc3[nH]c1c1[nH]c3cc(O)c(O)cc3c21
[1]
  inhibition: < 50%
[2]
  inhibition: < 50%
[3]
  inhibition: < 50%
[4]
  IC50: 0.84 µg/mL (≈ 2.35 µM)
[5]
  inhibition: < 50%
[6]
  inhibition: 80%
[7]
  inhibition: < 50%
[8]
  IC50: 25 µg/mL (≈ 70 µM)
[9]
  inhibition: < 50%
[10]
  inhibition: < 50%
[11]
  IC50: 2.1 µg/mL (≈ 5.88 µM)
[12]
  inhibition: 80%
[13]
  inhibition: < 50%
[14]
  inhibition: < 50%
[15]
  inhibition: < 50%
[16]
  inhibition: < 50%
[17]
  inhibition: < 50%
[18]
  inhibition: < 50%

## O=C1NCc2c1c1c3ccc(O)cc3[nH]c1c1[nH]c3ccccc3c21
[1]
  inhibition: < 50%
[2]
  inhibition: 80%
[3]
  inhibition: < 50%
[4]
  IC50: 1.34 µg/mL (≈ 4.09 µM)
[5]
  inhibition: < 50%
[19]
  inhibition: 80%
[20]
  inhibition: 80%
[7]
  inhibition: 80%
[8]
  IC50: 7.6 µg/mL (≈ 23.2 µM)
[21]
  inhibition: > 80%
[9]
  inhibition: < 50%
[10]
  inhibition: 80%
[11]
  IC50: 5.4 µg/mL (≈ 16.5 µM)
[13]
  inhibition: < 50%
[14]
  inhibition: < 50%
[15]
  inhibition: < 50%
[16]
  inhibition: < 50%
[18]
  inhibition: < 50%

## COC(=O)c1[nH]c(C(=O)OC)c(-c2c[nH]c3ccc(O)cc23)c1-c1c[nH]c2ccccc12 [LYCOGARUBIN B]
[1]
  inhibition: < 50%
[2]
  inhibition: < 50%
[3]
  inhibition: < 50%
[4]
  IC50: 18 µg/mL (≈ 41.9 µM)
[5]
  inhibition: < 50%
[19]
  inhibition: < 50%
[7]
  inhibition: < 50%
[8]
  IC50: > 25 µg/mL
[21]
  inhibition: < 50%
[9]
  inhibition: < 50%
[10]
  inhibition: < 50%
[13]
  inhibition: < 50%
[14]
  inhibition: 50%
[15]
  inhibition: < 50%
[16]
  inhibition: < 50%
[17]
  inhibition: < 50%

## O=C1NC(=O)C(c2c[nH]c3ccccc23)=C1c1c[nH]c2ccccc12 [RO-316233]
[1]
  inhibition: < 50%
[2]
  inhibition: < 50%
[3]
  inhibition: < 50%
[4]
  IC50: 6.3 µg/mL (≈ 19.2 µM)
[5]
  inhibition: < 50%
[7]
  inhibition: < 50%
[8]
  IC50: > 25 µg/mL
[21]
  inhibition: 80%
[9]
  inhibition: < 50%
[10]
  inhibition: 80%
[13]
  inhibition: < 50%
[14]
  inhibition: < 50%
[16]
  inhibition: < 50%
[17]
  inhibition: < 50%
[18]
  inhibition: < 50%

## COC(=O)c1[nH]c(C(=O)OC)c(-c2c[nH]c3ccccc23)c1-c1c[nH]c2ccccc12 [LYCOGARUBIN C]
[1]
  inhibition: < 50%
[2]
  inhibition: < 50%
[4]
  IC50: 15.3 µg/mL (≈ 37 µM)
[5]
  inhibition: < 50%
[19]
  inhibition: < 50%
[7]
  inhibition: < 50%
[8]
  IC50: > 25 µg/mL
[21]
  inhibition: < 50%
[9]
  inhibition: < 50%
[10]
  inhibition: < 50%
[13]
  inhibition: < 50%
[14]
  inhibition: < 50%
[15]
  inhibition: < 50%
[16]
  inhibition: < 50%
[17]
  inhibition: < 50%
[18]
  inhibition: < 50%
